Assay results taken from publication PMC12040169 (PLOS Biology, 2025).

Test: in vitro
Settings: human, hela cells, % viability

SMILES	viability at 28.5 h, 10 µM [%]
CCC(NC(=O)C(C)n1cc(Cl)cn1)c1ccc(OC)cc1 (stereo not drawn) [CBK282029]	95.3
CN(CC1OCCc2ccccc21)C(=O)CCC1CCCO1 (stereo not drawn) [CBK282030]	87.1
O=C(CCC1CCCO1)N1CCCC(COc2ccc(F)cc2)C1 (stereo not drawn) [CBK282031]	97.7
CCc1cc(C(=O)N2CCC(Oc3ccc(F)cc3)CC2)n(C)n1 [CBK282034]	86.5
COC(C)CN(C)Cc1c(C)[nH]c2ccc(F)cc12 (stereo not drawn) [CBK282035]	84.5
CCCC(C(=O)NCCN(C)C1CCCCC1)n1nc(C)cc1C (stereo not drawn) [CBK282039]	96.4
Cc1nccn1CC(C)C(=O)NCCN(C)C1CCCCC1 (stereo not drawn) [CBK282040]	102
CC(Cn1cc(Cl)cn1)C(=O)NCCN(C)C1CCCCC1 (stereo not drawn) [CBK282041]	86.1
COc1ccc2c(c1)CCCN2C(=O)Cn1nc(C)cc1C [CBK282042]	91.5
COC(C)CN(C)C(=O)c1oc2cc(C)ccc2c1C (stereo not drawn) [CBK282043]	88.1
CCCc1cc(CNC(=O)C(C)n2ccnc2)on1 (stereo not drawn) [CBK282046]	88.3
CCCc1cc(CNC(=O)c2ccnn2C(C)C)on1 [CBK282047]	97.4
Cc1cc(C)n(C(C)CNC(=O)C(C)n2ccnc2)n1 (stereo not drawn) [CBK282049]	109
CC(Cc1cccs1)NC(=O)C(C)n1ccnc1 (stereo not drawn) [CBK282050]	89.9
c1ccc2oc(CN3CCC(N4CCCCC4)CC3)cc2c1 [CBK282052]	87.1
CN(C)CCC1CCCCN1C(=O)[C@@H]1C[C@@H]2C=C[C@H]1C2 (stereo partly drawn) [CBK282054]	89.2
CN(C)CCC1CCCCN1C(=O)C1C2CCCCC21 (stereo not drawn) [CBK282055]	98.9
CCN1CC(C(=O)N2CCCCC2CN(C)C)CC1=O (stereo not drawn) [CBK282056]	108
Cc1cc(C(=O)N2CCn3cnnc3C2)c(C2CC2)o1 [CBK282059]	115
CC(C)(CN1CCCCC1)NC(=O)CCOc1cccc(F)c1 [CBK282060]	87.2
CN(C)CC1CCCN(C(=O)[C@@H]2C[C@@H]3C=C[C@H]2C3)C1 (stereo partly drawn) [CBK282063]	98
CCN1CC(C(=O)N2CCCC(CN(C)C)C2)CC1=O (stereo not drawn) [CBK282064]	106
O=C(C1C2CCCCC21)N1CCC(Oc2ccc(F)cc2)CC1 (stereo not drawn) [CBK282065]	92.1
CCn1c(C)nc2cc(C(=O)NC3CCCOC3)ccc21 (stereo not drawn) [CBK282066]	92.5

SMILES	viability at 28.5 h, 10 µM [%]
Cc1nc(C)n(CCNC(=O)C(C)Cc2cccs2)n1 (stereo not drawn) [CBK282067]	79.7
Cc1ccn(CCNC(=O)CC2CC3CCC2C3)n1 (stereo not drawn) [CBK282068]	110
CC(Cc1ccccn1)NC(=O)Cn1ccnc1 (stereo not drawn) [CBK282069]	104
CC(Cc1ccccn1)NC(=O)C1CC2C=CC1C21CC1 (stereo not drawn) [CBK282070]	90.7
CCc1cc(CNC(=O)C2CC3C=CC2C32CC2)on1 (stereo not drawn) [CBK282071]	102
Cc1nonc1CN(C)C(=O)C1CC2C=CC1C21CC1 (stereo not drawn) [CBK282076]	97.2
Cc1cc(C)n(C(C)CC(=O)N2CCCCC2CCN2CCCC2)n1 (stereo not drawn) [CBK282078]	106
CC1c2ccsc2CCN1C(=O)c1ccnn1C(C)C (stereo not drawn) [CBK282079]	89.2
CC(Cn1cncn1)C(=O)N1CCc2sccc2C1C (stereo not drawn) [CBK282080]	106
Cc1nn(C)cc1C(C)NC(=O)c1ccc(CN(C)C)o1 (stereo not drawn) [CBK282083]	96.1
Cc1nccn1CCN(C)C(=O)C1CC2C=CC1C21CC1 (stereo not drawn) [CBK282084]	91.7
CN(C)CC1CCCCN1C(=O)C1CC2C=CC1C21CC1 (stereo not drawn) [CBK282085]	86.6
CN(C)CC1CCCCN1C(=O)C1C2CCCCC21 (stereo not drawn) [CBK282087]	97.7
COCc1ccc(C(=O)N2CCN3C(=O)CCC32C)o1 (stereo not drawn) [CBK282091]	104
Cc1cc(C(=O)N2CCN3C(=O)CCC32C)c(C2CC2)o1 (stereo not drawn) [CBK282092]	97.6
Cc1nn(Cc2ccccc2)c(C)c1CC(=O)NCCn1ccnc1 [CBK282095]	107
CCC(=O)N1CCC(c2cc(-c3cccc(F)c3)n(C)n2)CC1 [CBK282096]	107
CC(=O)N1CCC(c2cc(-c3cccc(F)c3)n(C)n2)CC1 [CBK282097]	101
CC1(C)OC(=O)CC1C(=O)N1CCCC(COc2ccccc2F)C1 (stereo not drawn) [CBK282098]	100
CC1CCCN(CC(C)(C)NC(=O)c2ccnn2C(F)F)C1 (stereo not drawn) [CBK282099]	98.4
O=C(CCc1ccncc1)N1CCCCC1CN1CCCCCC1 (stereo not drawn) [CBK282102]	99.6
Cc1cnn(CC(=O)N2CCCCC2CN2CCCCCC2)c1 (stereo not drawn) [CBK282103]	98.9
Cc1c(C(=O)NC(C)c2ccncc2)oc2c(F)cccc12 (stereo not drawn) [CBK282105]	103
CCn1nc(C(C)C)cc1C(=O)NCCN1CCC(C)CC1 [CBK282107]	85.6
